From patent US7112422B2, “Fluorometric assay for detecting nucleic acid cleavage” (Georgetown University, priority 1994, dated 2006)
{FITC} = fluorescein isothiocyanate through the Aminolink 2 six-carbon amine linker

B1: F-D1/T1: 5′-TGAGTACCCGTGTGGAAAATCTCTAGCAGGGNCTATGGCGTCCCCTCTG (SEQ ID NO:3); E-D2: 3′-… (SEQ ID NO:4) (nucleic acid)
sense: TGAGTACCCGTGTGGAAAATCTCTAGCAGGGNCTATGGCGTCCCCTCTG
antisense: NACTGCTAGAGATTTTCCACACGGGTACTCA
modifications: FITC and EITC labels, chemistry not fully specified
notes: FITC-labeled 49-mer hybrid strand of HIV-1 U5 end annealed to EITC-labeled partial complementary strand

Assays:
[1] = target: T1, BamHI restriction endonuclease (Bacillus amyloliquefaciens, UniProt P23940); assay: BamHI cleavage of FITC-labeled DNA substrate, continuous fluorometric (dequenching) assay; format: biochemical, Bacillus amyloliquefaciens H; conditions: 10 units BamHI in 100 μl, 37° C.
T1 construct: purchased New England Biolab
T1 sequence (P23940 whole entry): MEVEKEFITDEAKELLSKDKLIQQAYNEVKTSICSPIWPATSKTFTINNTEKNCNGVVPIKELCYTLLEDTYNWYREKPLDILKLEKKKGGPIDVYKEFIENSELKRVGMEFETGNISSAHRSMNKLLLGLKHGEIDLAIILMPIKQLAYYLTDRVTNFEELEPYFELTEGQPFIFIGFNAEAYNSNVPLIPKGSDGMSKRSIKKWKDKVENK
Description: Spectroscopic Measurements: Absorbance and absorption spectra were measured with a Hewlett-Packard 8450A diode array spectrophotometer. Using the extinction coefficient of fluorescein (E-78,000) at 492 nm, the concentration and total moles of fluorescein were calculated (Chen and Scott, supra). The amount of fluorescein conjugated to the oligonucleotide was estimated by subtracting the moles of fluorescein multiplied by the extinction coefficient of FITC at 260 nm, 23,000 M^−1 cm^−1, from the total absorbance at 260 nm. The remaining AU260 should be proportional to the DNA content. Steady-state fluorescence spectra and intensity were recorded with an SLM 8000 spectrophotofluorometer with 10-mm Glan-Thompson polarizers. Fluorescence emission measurements were performed under “magic angle” emission conditions (Spencer and Weber, J. Chem. Phys. 52:1654–1663 (1970)). A cuvette with a 3-mm excitation path length was used for all experiments. The absorbance of all fluorescence samples was less than 0.1 at the wavelength of excitation to avoid inner-filter effects. The temperatures of the samples were regulated with a Neslab Instruments, Inc., T.E.Q. temperature controller and a PBC4 bath cooler.
The extent of cleavage by BamHI was calculated from the fluorescence data utilizing the following equation:
[formula] where [DNA]c is the concentration of cleaved DNA, Ft is the fluorescence intensity at time, t, F∞is the fluorescence intensity at the plateau, F0 is the initial fluorescence intensity, and [DNA]i is the initial concentration of DNA. Results and Discussion
(§1) Cleavage reactions were also examined as a function of substrate concentration with a fixed concentration of BamHI (10 units in 100 μl total reaction volume). The reactions were initiated by the addition of BamHI and stopped by the addition of 25 mM EDTA 11 minutes after the enzyme was added. The reaction mixtures were subjected to native 20% polyacrylamide gel analysis. Since the DNA substrate was labeled with FITC, a photograph of the gel was taken under ultraviolet illumination (using a Kodak green filter) without staining the gel with ethidium bromide. Therefore, only the fluorescent-labeled DNA fragments were visualized, resulting in two DNA bands: a substrate band and a product band (5′-FITC-NH-CCCCG). A direct comparison was made between the data obtained from the fluorometric assay and the photographic data obtained from gel electrophoretic analysis. The kinetics of BamHI cleavage reactions as a function of DNA substrate concentration measured by fluorometric analysis are illustrated in FIG. 7A. […] Similarly, the reaction at 0.36 μM substrate reached near completion as shown by both the fluorescence (curve B, FIG. 7A) and the gel data (lane B, FIG. 7B). Higher DNA substrate concentrations, 0.72 μM (curve C, FIG. 7A) and 1.08 μM (curve D, FIG. 7A), yielded incomplete cleavage reactions (observed by changes in fluorescence intensity). […] It appears that the initial velocity of curve D is also slower than that of curve C. […] As expected, the PAGE data (FIG. 7B) show higher product formation in lane C compared to that of lane D.
The fractions of uncleaved and cleaved DNA were calculated from the fluorescence data utilizing equation 1 (see Methods). Fractions of uncleaved and cleaved DNA were also estimated from a photograph taken from the polyacrylamide gel. […]

[2] = target: T1, BamHI restriction endonuclease; assay: BamHI cleavage of FITC-labeled DNA substrate, native 20% PAGE with densitometry; format: biochemical, Bacillus amyloliquefaciens H; conditions: 10 units BamHI in 100 μl, 37° C.
Description: as §1
The fractions of uncleaved and cleaved DNA were calculated from the fluorescence data utilizing equation 1 (see Methods). Fractions of uncleaved and cleaved DNA were also estimated from a photograph taken from the polyacrylamide gel. Utilizing a Hewlett Packard ScanJet IIp and the densitometry program Scan Analysis 68000 (BioSoft), the peaks obtained from each of the bands (substrate and products) were integrated and ratioed to obtain the relative amount of cleavage.

HIV-IN = target: T2, HIV-IN (Human immunodeficiency virus type 1 group M subtype B, UniProt P12497); assay: HIV-IN cleavage of fluorogenic substrate monitored by FRET; format: biochemical
T2 construct: The wild-type HIV-integrase protein was obtained from Dr. Robert Craigie; made in house; host or cells: Escherichia coli
Description: FIGS. 10A and 10B: FIG. 10A is a graph depicting steady-state emission spectra of a fluorogenic substrate in the presence and absence of HIV-IN. Curve A depicts the emission spectrum of 4 pmol of fluorogenic substrate in 400 μl reaction buffer containing 25 mM HEPES, pH 7.5, 50 mM NaCl, 2 mM DTT, and 5% glycerol at 37° C. Curve B depicts the emission spectrum of the same substrate digested with 40 pmol HIV-IN for 1 hour. Curve C depicts the difference emission spectrum of curve B and curve A. Emission spectra were recorded with an excitation wavelength at 460 nm.
FIGS. 11A, 11B, and 11C: FIG. 11A is a graph depicting the kinetics of an HIV-IN cleavage reaction of a fluorogenic substrate monitored by FRET. The DNA cleavage reaction was initiated by the addition of HIV-IN to a preincubated reaction mixture containing 4 pmol of substrate. The conditions for the reactions are the same as in FIG. 10. Changes in fluorescence intensity were monitored with excitation and emission wavelengths of 460 and 510 nm, respectively. Mn^2+ quenched the fluorescence intensity of the substrate in the absence of the enzyme; thus, the kinetic data presented in this figure were intensity normalized according to the intensity ratio of the substrate in the presence of Mg^2+ and in the presence of Mn^2+. FIG. 11B depicts the kinetics of an HIV-IN cleavage reaction of a fluorogenic substrate monitored by denaturing polyacrylamide gel electrophoresis (PAGE). The time course of a ^32P-5′-labeled fluorescent substrate was determined by radiographic assays. […] Reaction mixtures were analyzed by denaturing gel electrophoresis. Results were quantitated by utilizing a Hewlet-Packard ScanJet IIp and the densitometry program Scan Analysis 68020 (BioSoft). […]
Spectroscopic Measurements: Absorbance and absorption spectra were measured with a Hewlett-Packard 8450A diode array spectrophotometer. Steady-state fluorescence spectra and intensity were recorded with an SLM 8000 spectrophotofluorometer with 10-mm Glan-Thompson polarizers. […]

[3] = Curve A, [DNA] 0.21 μM, stopped after 11 minutes
[4] = Curve B, [DNA] 0.36 μM, stopped after 11 minutes
[5] = Curve C, [DNA] 0.72 μM, stopped after 11 minutes
[6] = Curve D, [DNA] 1.08 μM, stopped after 11 minutes
[7] = Curve E, [DNA] 0.18 μM, in the presence of 25 mM EDTA

| Molecule | % Cleavage Fluorescence Assay [1, 3] [%] | % Cleavage Fluorescence Assay [1, 4] [%] | % Cleavage Fluorescence Assay [1, 5] [%] | % Cleavage Fluorescence Assay [1, 6] [%] | % Cleavage Fluorescence Assay [1, 7] [%] | % Cleavage PAGE [2, 3] [%] | % Cleavage PAGE [2, 4] [%] | % Cleavage PAGE [2, 5] [%] | % Cleavage PAGE [2, 6] [%] | % Cleavage PAGE [2, 7] [%] | estimated efficiency of the cleavage reaction by HIV-IN (HIV-IN; 4 pmol substrate, 40 pmol HIV-IN, 1 hour, 37° C., in the presence of Mg2+, relative to DNase I digestion) [%] | changes in donor fluorescence with Mg2+ relative to Mn2+ (HIV-IN; 7.5 mM Mg2+ vs 7.5 mM Mn2+, end of a 60 minute reaction, intensity normalized) | cleavage of substrate by integrase (increase in fluorescence intensity) (HIV-IN; in the presence of 20 mM EDTA, 37° C.) |
| --- | --- | --- | --- | --- | --- | --- | --- | --- | --- | --- | --- | --- | --- |
| 5′-FITC-NH-CCCCGGATCCACCC-3′ (SEQ ID NO:1) annealed to 3′-GGGGCCTAGGTGGG-5′ (SEQ ID NO:2) (antisense GGGTGGATCCGGGG; sense: DNA, 5' {FITC}, backbone and methylation of C not given here; antisense: DNA, backbone and methylation of C not given here; further chemistry not fully specified) [FITC-labeled DNA Substrates, 14-mer FITC-labeled oligonucleotide with the BamHI restriction site, annealed to its unlabeled complementary strand] | 100 | 91.9 | 59.5 | 32.2 | 0 | 100 | 92.3 | 60.6 | 30.1 | 0 | – | – | – |
| B1 | – | – | – | – | – | – | – | – | – | – | 35 | approximately 3 times | not cleaved |
